1 compound from patent US10864225B2, “Treatment of metabolic disorders in equine animals” (Boehringer Ingelheim Vetmedica GmbH, priority 2013, dated 2020) can be followed below.

In the case of `N#Cc1ccc([C@@H]2O[C@H](CO)[C@@H](O)[C@H](O)[C@H]2O)cc1Cc1ccc(C2CC2)cc1.O=C(O)[C@@H]1CCCN1`, the “mechanical stability of the crystals” value (allows grinding of the crystals) was “high mechanical stability”. For the same compound, the “physical and chemical stability” value (under various environmental conditions and during the production of a medicament) is “high physical and chemical stability”.
